Several values for one entry are separate records, joined by “and”; a condition that tells them apart may be missing. Identical values can stand only once. Like-named read-outs stand apart in the source and are kept apart here.
System: Balb/c mice
Settings: serum 1:50
Description: Serum was obtained on days 10, 19, 28 and 42. Antibodies were assayed at a 1:50 dilution on Neutravidin assay plates coated with Biotin-NP146 Biotin-NP350 or Biotin-Ova8 (controls).

Sequence | Responders/Group Total (n = 8) (cutoff OD 0.3 (A450), Day 10) | Responders/Group Total (n = 8) (cutoff OD 0.3 (A450), Day 19) | Responders/Group Total (n = 8) (cutoff OD 0.3 (A450), Day 28) | Responders/Group Total (n = 8) (cutoff OD 0.3 (A450), Day 42) | Responders/Group Total (n = 8) (cutoff OD 0.5 (A450), Day 10) | Responders/Group Total (n = 8) (cutoff OD 0.5 (A450), Day 19) | Responders/Group Total (n = 8) (cutoff OD 0.5 (A450), Day 28) | Responders/Group Total (n = 8) (cutoff OD 0.5 (A450), Day 42) | Responders/Group Total (n = 8) (cutoff OD 1.0 (A450), Day 10) | Responders/Group Total (n = 8) (cutoff OD 1.0 (A450), Day 28) | Responders/Group Total (n = 8) (cutoff OD 1.0 (A450), Day 42) | Responders/Group Total (n = 8) (cutoff OD 1.5 (A450), Day 10) | Responders/Group Total (n = 8) (cutoff OD 1.5 (A450), Day 28) | Responders/Group Total (n = 8) (cutoff OD 1.5 (A450), Day 42) | Responders/Group Total (n = 8) (cutoff OD 1.0 (A450), Day 19) | Responders/Group Total (n = 8) (cutoff OD 1.5 (A450), Day 19)
DGQEEKAGVVSTGLIGGGVILLNKHIDAYKTF [DerG-NP350] | 8 and 8/8 | 8/8 | 8/8 | 8/8 | 8 and 8/8 | 8/8 | 8/8 | 8/8 | 2/8 | 8/8 | 8/8 | 0/8 | 8/8 | 8/8 | – | –
DLLKNGERIEKVEGGGVILLNKHIDAYKTF [J-NP350] | – | 7/8 | 8/8 | 8/8 | – | 7/8 | 8/8 | 8/8 | 0/8 | 8/8 | 8/8 | 0/8 | 2/8 | 6 and 6/8 | 6 and 6/8 | 1/8
